# Experiments:
# Streptococcus faecium 8b = assay: MIC, standard strain 3; format: cell-based; conditions: Enterococcus faecium; S. faecium 8b; two-fold dilution, Muller Hinton agar, 10^7 CFU/ml, 37° C., 18 hours; read-out: Minimal Inhibitory Concentration(MIC)
# Experimental: (§1) In order to illustrate antibiotic effectiveness of the compounds of the present invention, the minimal inhibitory concentrations (MIC's) of the representative compounds were determined against standard strains and compared with ceftazidime and cefpirome, which were used as control compounds.
# (§2) The MIC values were taken by employing a two-fold dilution method: that is, two-fold serial dilutions of each of the test compounds were made from initial concentration of […]; each 1.5 ml of them was dispersed in 13.5 ml of Muller Hinton agar medium to adjust to […]; the standard test strain which had the concentration of 10^7 CFU/ml was inoculated by medium;and these were incubated at 37° C. for 18 hours.
# (§3) The test used twenty kinds of standard test strains which induced urinary tract infections, respiratory organ infections, skin soft tissue infections, plasma infections, gastrointestinal infections, central nervous system infections, most of which produce β-lactamase. The standard test strains used are as follows:
# 3. Streptococcus faecium 8b
# Escherichia coli = assay: MIC, clinically separated strains; format: cell-based; conditions: 18 h
# Experimental: as §2
# Serratia spp = assay: MIC, clinically separated strains; format: cell-based; conditions: 18 h
# Experimental: as §2
# Pseudomonas aeruginosa = assay: MIC, clinically separated strains; format: cell-based; conditions: 18 h
# Experimental: as §2
# MRSA(KAIST) = assay: MIC, clinically separated strains; format: cell-based; conditions: Staphylococcus aureus, 18 h
# Experimental: as §2
# Enterobactercloacas = assay: MIC, clinically separated strains; format: cell-based; conditions: Enterobacter cloacae, 18 h, 20 clinical strains
# Experimental: as §2
# Klebsiella oxytoca = assay: MIC, clinically separated strains; format: cell-based; conditions: 18 h
# Experimental: as §2
# Methicillin Resistant = assay: MIC, clinically separated strains; format: cell-based; conditions: 18 h, 19 clinical strains
# Experimental: as §2
# Providencia rettgeri = assay: MIC, clinically separated strains; format: cell-based; conditions: 18 h
# Experimental: as §2
# Proteus mirabilis = assay: MIC, clinically separated strains; format: cell-based; conditions: 18 h
# Experimental: as §2
# Pseudomonas I = assay: MIC, clinically separated strains; format: cell-based; conditions: 18 h
# Experimental: as §2
# Morganella morganii = assay: MIC, clinically separated strains; format: cell-based; conditions: 18 h
# Experimental: as §2
# Pseudomonas II = assay: MIC, clinically separated strains; format: cell-based; conditions: 18 h
# Experimental: as §2
# D Streptococcus I = assay: MIC, clinically separated strains; format: cell-based; conditions: 18 h
# Experimental: as §2
# Proteus vulgaris = assay: MIC, clinically separated strains; format: cell-based; conditions: 18 h
# Experimental: as §2
# ATCC = assay: MIC, clinically separated strains; format: cell-based; conditions: 18 h; 20 strains
# Experimental: as §2
# Streptococcus II = assay: MIC, clinically separated strains; format: cell-based; conditions: 18 h
# Experimental: as §2
# Enterococcus I = assay: MIC, clinically separated strains; format: cell-based; conditions: 18 h
# Experimental: as §2
# Enterococcus II = assay: MIC, clinically separated strains; format: cell-based; conditions: 18 h
# Experimental: as §2
# Escherichia coli DC 0 = assay: MIC, standard strain 8; format: cell-based; conditions: DC0, E. coli DC 0, two-fold dilution, Muller Hinton agar, 10^7 CFU/ml, 37° C., 18 hours, read-out: Minimal Inhibitory Concentration(MIC)
# Experimental: as §1, §2
# The test used twenty kinds of standard test strains which induced urinary tract infections, respiratory organ infections, skin soft tissue infections, plasma infections, gastrointestinal infections, central nervous system infections, most of which produce β-lactamase.
# [1] = system: Streptococcus pyogenes A 308; assay: MIC, standard strain 1; format: cell-based; conditions: A308, S. pyogenes A 308, two-fold dilution, Muller Hinton agar, 10^7 CFU/ml, 37° C., 18 hours, read-out: Minimal Inhibitory Concentration(MIC)
# Experimental: as §1, §2, §3
# 1. Streptococcus pyogenes A 308
# [2] = system: Staphylococcus aureus SG 511; assay: MIC, standard strain 4; format: cell-based; conditions: SG511, 18 h, read-out: Minimal Inhibitory Concentration(MIC)
# Experimental: as §1, §2, §3
# 4. Staphylococcus aureus SG 511
# D StreptococcusII = assay: MIC, clinically separated strains; format: cell-based, D Streptococcus; conditions: Streptococcus, 18 h, 19 clinical strains
# Experimental: as §2
# [3] = system: Pseudomonas aeruginosa 9.027; assay: MIC, standard strain 12; format: cell-based; conditions: Pseudomonas aeruginosa; P. aeruginosa 9.027; two-fold dilution, Muller Hinton agar, 10^7 CFU/ml, 37° C., 18 hours; read-out: Minimal Inhibitory Concentration(MIC)
# Experimental: as §1, §2, §3
# 12. Pseudomonas aeruginosa 9.027
# [4] = system: Pseudomonas aeruginosa 1771; assay: MIC, standard strain 14; format: cell-based; conditions: Pseudomonas aeruginosa; P. aeruginosa 1771; two-fold dilution, Muller Hinton agar, 10^7 CFU/ml, 37° C., 18 hours; read-out: Minimal Inhibitory Concentration(MIC)
# Experimental: as §1, §2, §3
# 14. Pseudomonas aeruginosa 1771
# [5] = system: Pseudomonas aeruginosa 1771M; assay: MIC, standard strain 15; format: cell-based; conditions: 18 h, read-out: Minimal Inhibitory Concentration(MIC)
# Experimental: as §1, §2, §3
# 15. Pseudomonas aeruginosa 1771M
# [6] = read-out: range of MIC, 20 clinical strains
# [7] = read-out: range of MIC, 5 clinical strains
smiles,measurement,setting,value
CO/N=C(\C(=O)N[C@@H]1C(=O)N2C(C(=O)[O-])=C(C[n+]3ccc(C(N)=O)c4c3CCC4)CS[C@H]12)c1csc(N)n1 [Example 3],MIC,Streptococcus faecium 8b,12500 µg/mL
same,MIC50,Escherichia coli; 20 clinical strains,0.025 µg/mL
same,MIC90,Escherichia coli; 20 clinical strains,0.049 µg/mL
same,MIC,Escherichia coli; [6],0.025 to 0.391 µg/mL
same,MIC50,Serratia spp; 20 clinical strains,0.025 µg/mL
same,MIC90,Serratia spp; 20 clinical strains,0.049 µg/mL
same,MIC,Serratia spp; [6],0.025 to 0.049 µg/mL
same,MIC50,Pseudomonas aeruginosa; 20 clinical strains,3.12 µg/mL
same,MIC90,Pseudomonas aeruginosa; 20 clinical strains,6.25 µg/mL
same,MIC,Pseudomonas aeruginosa; [6],0.781 to 12.5 µg/mL
same,MIC50,MRSA(KAIST); 15 clinical strains,6.25 µg/mL
same,MIC90,MRSA(KAIST); 15 clinical strains,50 µg/mL
same,MIC,"MRSA(KAIST); read-out: range of MIC, 15 clinical strains",0.781 to 100 µg/mL
same,MIC,Enterobactercloacas; read-out: range of MIC,0.013 to 1.56 µg/mL
same,MIC50,Enterobactercloacas,0.025 µg/mL
same,MIC90,Enterobactercloacas,0.049 µg/mL
same,MIC50,Klebsiella oxytoca; 20 clinical strains,0.013 µg/mL
same,MIC90,Klebsiella oxytoca; 20 clinical strains,0.098 µg/mL
same,MIC,Klebsiella oxytoca; [6],0.007 to 0.391 µg/mL
same,MIC,Methicillin Resistant; read-out: range of MIC,0.781 to 100 µg/mL
same,MIC50,Methicillin Resistant,6.25 µg/mL
same,MIC90,Methicillin Resistant,50 µg/mL
same,MIC50,Providencia rettgeri; 6 clinical strains,0.013 µg/mL
same,MIC90,Providencia rettgeri; 6 clinical strains,0.049 µg/mL
same,MIC,"Providencia rettgeri; read-out: range of MIC, 6 clinical strains",0.004 to 0.098 µg/mL
same,MIC50,Proteus mirabilis; 4 clinical strains,0.013 µg/mL
same,MIC90,Proteus mirabilis; 4 clinical strains,0.049 µg/mL
same,MIC,"Proteus mirabilis; read-out: range of MIC, 4 clinical strains",0.007 to 0.049 µg/mL
same,MIC50,Pseudomonas I,3.12 µg/mL
same,MIC90,Pseudomonas I,6.25 µg/mL
same,MIC,Pseudomonas I; read-out: range of MIC,0.781 to 12.5 µg/mL
same,MIC50,Morganella morganii; 5 clinical strains,0.013 µg/mL
same,MIC90,Morganella morganii; 5 clinical strains,0.025 µg/mL
same,MIC,Morganella morganii; [7],0.013 to 0.025 µg/mL
same,MIC50,Pseudomonas II,1.56 µg/mL
same,MIC90,Pseudomonas II,6.25 µg/mL
same,MIC,Pseudomonas II; read-out: range of MIC,0.781 to 12.5 µg/mL
same,MIC50,D Streptococcus I; 20 clinical strains,12.5 µg/mL
same,MIC90,D Streptococcus I; 20 clinical strains,25 µg/mL
same,MIC,D Streptococcus I; [6],12.5 to 100 µg/mL
same,MIC50,Proteus vulgaris; 5 clinical strains,0.025 µg/mL
same,MIC90,Proteus vulgaris; 5 clinical strains,0.098 µg/mL
same,MIC,Proteus vulgaris; [7],0.025 to 0.098 µg/mL
same,MIC50,ATCC,0.098 µg/mL
same,MIC90,ATCC,25 µg/mL
same,MIC50,Streptococcus II; 17 clinical strains,0.004 µg/mL
same,MIC90,Streptococcus II; 17 clinical strains,0.007 µg/mL
same,MIC,"Streptococcus II; read-out: range of MIC, 17 clinical strains",0.002 to 0.007 µg/mL
same,MIC50,Enterococcus I; 20 clinical strains,0.025 µg/mL
same,MIC90,Enterococcus I; 20 clinical strains,0.049 µg/mL
same,MIC,Enterococcus I; [6],0.013 to 0.195 µg/mL
same,MIC50,Enterococcus II; 20 clinical strains,0.025 µg/mL
same,MIC90,Enterococcus II; 20 clinical strains,1.56 µg/mL
same,MIC,Enterococcus II; [6],0.007 to 3.12 µg/mL
same,MIC,Escherichia coli DC 0,25 µg/mL
same,MIC,[1],0.7 µg/mL
same,MIC,[2],391 µg/mL
same,MIC,D StreptococcusII; read-out: range of MIC,6.25 to 100 µg/mL
same,MIC50,D StreptococcusII,25 µg/mL
same,MIC90,D StreptococcusII,100 µg/mL
same,MIC,[3],1560 µg/mL
same,MIC,[4],391 µg/mL
same,MIC,[5],195 µg/mL
